# Assay results published in patent US9243237B2, “Method for mass production of factor VII/VIIA” (HANMI SCIENCE CO., LTD, priority 2010, dated 2016).
# Legend:
# Type in all cases: cell-based, Chinese hamster
# [1] = tested on: hFVII-expressing recombinant CHO cell line (HMF708); assay: Growth of hFVII-expressing cell line in production medium containing sodium butyrate (50 mL Erlenmeyer flasks), hFVII level by enzyme immunoassay; conditions: for FVII Level (% compared to control %): 30.0°C, day 4, supernatant
# Description: (§1) The transformed cells of Example <2-1> were seeded at a density of 2×10^4 cells/well to 24-well plates. When the cells were grown to almost full confluence, serum-free CHO-A-SFM (Gibco, Cat. No. 05-5072EF) supplemented with 0.3 mM sodium butyrate (Sigma, Cat. No. B5887) was aliquoted in an amount of 200 μL/well, followed by incubation at 33° C. for 48 hours in a 5% CO2 incubator. The cell culture was transferred to 1.5 mL tubes and centrifuged. Expression levels of human factor VII in the supernatants were measured by taking measurements using an enzyme immunoassay kit (American Diagnostica, Cat. no. 877) according to the manufacturer's instruction. In detail, the cell culture and the standard substance enclosed in the kit were diluted to certain concentrations in physiological saline containing 0.05% Tween-20, and the dilutions were added in an amount of 100 μL to each well of the kit and allowed to react at room temperature for one hour on a plate shaker. After being washed four times with the washing solution enclosed in the kit, each of the wells was incubated at room temperature for one hour with 100 μL of an anti-human factor VII antibody on a plate shake. Each well was again washed four times with the washing solution and then incubated at room temperature for 30 min with 100 μL of an HRP (horseradish peroxidase)-conjugated antibody to the anti-human factor VII antibody. Subsequently, the wells were washed four times, and incubated with 100 μL of a substrate per well at room temperature. Five minutes later, 50 μL of a stopping solution was added to each well, followed by measuring absorbance at 450 nm. A standard curve and a function were obtained from the concentrations of the standard solution and the absorbance values obtained.
# (§2) One vial (1×10^7 cells/mL) of the hFVII-expressing cell line which had been selected and assimilated to a suspension culture in Example <2-3> was taken from a liquid nitrogen tank and thawed as soon as possible in a 37° C. bath. After being washed once with a seed culturing medium (EX-CELL CHO medium (Sigma, Cat. No. 63225C) supplemented with 0.3 g/L glutamine), the cell culture was centrifuged at 90×g for 5 min and then inoculated into 50 mL of a seed culture medium in an Erlenmeyer flask (Corning, USA cat#431144). When grown for 1-2 days to a density of 10×10^5 cells/mL in a CO2 incubator (37° C., 5% CO2), the cells were centrifuged again in the same manner and then sub-cultured in 100 mL of a fresh seed culture medium in a new Erlenmeyer flask. The double-volume passage was continued until there was a sufficient number of cells.
# The effect of sodium butyrate on the production of hFVII was examined. For this, first, the recombinant CHO cell line which was being cultured was inoculated at a density of 5.0×10^6 cells/mL into 50 mL of a production medium in each of three Erlenmeyer flasks which contained sodium butyrate (Cat. no. B5887, SIGMA, USA) at concentrations of 0.3, 1.0 and 1.5 mM, respectively. The cells grown in the presence of 0.3 mM sodium butyrate were used as a control for comparison. The cells were cultured at 30.0° C. for four days to produce hFVII. On day 4, the cell concentration and cellular activity of the cell cultures were examined. There were no changes in cell density and cellular activity among the cell cultures of different butyrate concentrations.
# In addition, after centrifugation of the cell cultures on Day 4, the levels of hFVII in the supernatants were measured using an enzyme immunoassay method as in Example <2-2>.
# [2] = tested on: hFVII-expressing recombinant CHO cell line (HMF708); assay: Growth of the cell line in mass-scale production medium (4 L incubation tanks, continuous feed) containing sodium butyrate, hFVII level by enzyme immunoassay; conditions: for FVII Level (% compared to control %): 4 L, 30.0°C, 11-18 days
# Description: as §1
# as §2, with “assimilated to suspension culture” for “assimilated to a suspension culture”, “90×g for min and” for “90×g for 5 min and”, “of 10×10^5 cell/mL in a” for “of 10×10^5 cells/mL in a”, “continued until a sufficient” for “continued until there was a sufficient”, “number of cells were achieved.” for “number of cells.”
# The effect of sodium butyrate on the production of hFVII was examined when the cells were cultured on mass scale. For this, first, the recombinant CHO cell line which was being cultured was inoculated at a density of 1.2×10^7 cells/mL into 4 L of a production medium in each of incubation tanks which contained sodium butyrate (Cat. no. B5887, SIGMA, USA) at concentrations of 0.3, 1.0, 1.5 and 2.0 mM, respectively. The cells grown in the presence of 0.3 mM sodium butyrate were used as a control for comparison. To produce hVII, the cells were cultured at 30.0° C. for 11-18 days with the medium continuously fed at 0.5-1.0 VVD. The culturing was stopped when cellular activity was reduced to less than 80%. […]
# In addition, after the cell cultures taken during the cultivation was centrifuged, the levels of hFVII in the supernatants were measured using an enzyme immunoassay method as in Example <2-2>.
# [3] = tested on: CHO/dhfr- cells transformed with pX0GC-FVII; assay: Selection of human factor VII-expressing cells in MTX selection medium, expression level by enzyme immunoassay; conditions: MTX concentration of 10 nM or higher
# Description: as §1, with “After being washed four times with the washing solution enclosed in the kit, each of the wells was incubated at room temperature for one hour with 100 μL of an anti-human factor VII antibody on a plate shake. Each well was again washed four times with the washing solution and then incubated at room temperature for 30 min with 100 μL of an HRP (horseradish peroxidase)-conjugated antibody to the anti-human factor VII antibody. Subsequently, the wells were washed four times, and incubated with 100 μL of a substrate per well at room temperature.” left out, “obtained. […]” for “obtained.”
# [4] = 0.3 mM sodium butyrate (control)
# [5] = 1.0 mM sodium butyrate, day 4, control = 0.3 mM
# [6] = 1.5 mM sodium butyrate, control = 0.3 mM
# [7] = 1.5 mM sodium butyrate, day 4, control = 0.3 mM
# [8] = day 4, among cultures with 0.3, 1.0 and 1.5 mM butyrate
SMILES,"FVII Level (% compared to control %) [1, 4]","Final Cell Density (% compared to control) ([1]; 0.3 mM sodium butyrate (control), day 4)","FVII Level (% compared to control %) ([1]; 1.0 mM sodium butyrate, control = 0.3 mM)","Cellular Activity (% compared to control) [1, 5]","Final Cell Density (% compared to control) [1, 5]","FVII Level (% compared to control %) [1, 6]","Cellular Activity (% compared to control) [1, 7]","Final Cell Density (% compared to control) [1, 7]","production of hFVII ([1]; 0.3, 1.0 and 1.5 mM sodium butyrate)","activity at 300 µM ([1]; Cricetulus griseus, CHO, 96 h, 0.3 mM sodium butyrate (control), day 4, read-out: Cellular Activity (% compared to control))","cell density [1, 8]","cellular activity [1, 8]","FVII Level (% compared to control %) [2, 4]","FVII Level (% compared to control %) ([2]; 1 mM sodium butyrate, control = 0.3 mM)","FVII Level (% compared to control %) [2, 6]","FVII Level (% compared to control %) ([2]; 2.0 mM sodium butyrate, control = 0.3 mM)","amounts of FVII produced ([2]; higher concentrations of sodium butyrate, in spite of reduced periods of time of production)",expression level of human factor VII [3]
"CCCC(=O)[O-].[Na+] [Sodium Butyrate, sodium butyrate]",100.0%,100.0%,164.9%,100.2%,106.8%,190.1%,99.9%,108.5%,increased in a sodium butyrate dose-dependent manner,100%,no changes,no changes,100.0%,154.5%,157.7%,127.6%,higher amounts of FVII were produced,
"CN(Cc1cnc2nc(N)nc(N)c2n1)c1ccc(C(=O)N[C@@H](CCC(=O)O)C(=O)O)cc1 [MTX, Methotrexate]",,,,,,,,,,,,,,,,,,not increased
